The values that follow are results of earlier work, collected in paper PMC7767166, “Imidazole and Imidazolium Antibacterial Drugs Derived from Amino Acids” (Pharmaceuticals, 2020).

Marks after values point to notes of the source that are not given here.

Data set [1] relates to MRC-5 cells. Set-up: method as in PMID 19407848. Conditions: cited from earlier work.
In data set [2] the test system is B. subtilis. Details: method as in PMID 26777771. Conditions: cited from earlier work.

For the substance Alamethicin, the “IC50 (cytotoxicity against MRC-5 cells)” value in data set [1] was 62.5 ^f [42] μg/mL. The “B. subtilis MIC” value in data set [2] is 16 µg/mL.
